In patent US20230405003A1, “APPLICATION OF THYMIDINE DERIVATIVE IN PREPARATION OF DRUGS” (ONQUALITY PHARMACEUTICALS CHINA LTD., priority 2020, published 2023):
Where two headings read alike, the source gives them in different places.

Key:
HaCaT cells = test: Relief of 5-FU proliferative toxicity to HaCaT cells (CCK-8 cell survival); assay type: cell-based; conditions: for Cell Survival Rate (increased percentage of cell survival compared with the Group of 5-FU): 5-Fu 20 μM, HaCaT cells
Protocol: The cultured skin cell HaCaTs were digested, counted, and inoculated into a 96-well plate with 5000-10000 cells in each well. After 24 h of culture, the wells were divided into Group of blank solvent control, Group of 5-FU, Group of 5-FU+thymidine derivative, Group of 5-FU+the combination of thymidine derivative and uridine derivative. […] adding a solution of 5-FU and a solution of thymidine derivative (the final concentrations of 5-FU and thymidine derivative are shown in Table 3, the solution of thymidine is an aqueous solution, while the solutions of thymidine derivatives are all DMSO solutions); Group of 5-FU+the combination of thymidine derivative and uridine derivative: adding a solution of 5-FU and a mixed solution of thymidine derivative and uridine derivative (the final concentrations of the solution of 5-FU and the mixed solution of thymidine derivative+uridine derivative are shown in Table 3, the solution of thymidine is an aqueous solution, while the mixed solutions of thymidine derivative+uridine derivative are all DMSO solutions); Group of blank solvent control: adding the same type of solution as those of the corresponding Group of 5-FU or Group of 5-FU+thymidine derivative (or the mixed solution of thymidine derivative+uridine derivative) in equal volume. Group of blank solvent control was used as control to exclude the influence of the solvents in Group of 5-FU and Group of 5-FU+thymidine derivative (or the mixed solution of thymidine derivative+uridine derivative) on the results. After additional 48 hours of culture, a Cell Counting Kit-8 (CCK-8) detection kit (C0037, purchased from Shanghai Beyotime Biotechnology) is used to determine the cell survival rate, thereby calculating the proliferative toxicity of 5-Fu/5-DFUR on cells and the relieving effect of the thymidine derivative (or the mixed solution of thymidine derivative+uridine derivative) on the proliferative toxicity. Using GraphPad Prism 6.0 software, the results were statistically analyzed by t-test and plotted.
(§1) Table 3 lists the combinations of 5-FU and thymidine derivative (or the mixed solution of thymidine derivative+uridine derivative), and the corresponding experimental results (wherein the data in the column of cell survival indicate the corresponding increased percentage of the cell survivals of Group of 5-FU+thymidine derivative or Group of 5-FU+the combination of thymidine derivative and uridine derivative compared with the Group of 5-FU). FIGS. 3-10 list the experimental results of several representative compounds.
The effect of thymidine derivative or a combination of thymidine derivative and uridine derivative on relieving the proliferative toxicity of a chemotherapeutical drug (5-FU) to HaCaT cells was tested according to the method in Examples 2-29. The test thymidine derivative or the combination of thymidine derivative and uridine derivative, as well as the final concentration of the test compounds were shown in Table 7.
as §1, with “7” for “3”, “15-21” for “3-10”, “exemplary” for “representative”

[1] = test system: hand-foot syndrome caused by capecitabine in Balb/c mice; test: Mouse model of hand-foot syndrome caused by capecitabine, gel application or oral administration; assay type: in vivo; conditions: Mus musculus, 192 h, capecitabine 1000 mg/kg once daily, oral 200 mpk twice per day, 8 days
Protocol: A mouse animal model was established. 6-week aged male Balb/c mice were administered with capecitabine by daily gavage. After a few days, mice's paws developed hand-foot syndrome symptoms (similar to the results of the rat model, such as, in FIG. 13). Similar to the human body, mice developed hand-foot syndrome in the forepaws and hind paws after oral administration of capecitabine. The causes of the two are the same, and the disorder is also very similar. Therefore, mice are very good animal models for simulating the hand-foot syndrome caused by capecitabine.
After Balb/c mice were fed and adapted for one week (about 20 g), the mice were divided into groups, with 10 mice in each group. Then, the mice were subject to gavage administration. Capecitabine was dissolved in normal saline with pH=8, and the gavage dose was not greater than 0.3 mL at each time. After gavage, the blank gel was applied to the forepaws and the hind paws (about 4*0.5 cm*0.5 cm) in group of blank gel, and gels containing different drugs were applied to the forepaws and the hind paws (about 4*0.5 cm*0.5 cm) in group of administration. After application, the mice were fixed in Elizabethan collar for 4 hours. After 4 hours, the mice were released, wiped with clean water to remove any residual drug at the application site, and allowed back to the cage. The gavage and application tests are repeated daily until the group of blank has developed obvious hand-foot syndrome. […] Additionally, the thymidine derivative and the combination of thymidine derivative and uridine derivative were orally administered for observing the relief of the hand-foot syndrome. In examples 41-48, thymidine derivative and/or uridine derivative were/was applied, and in examples 49-52, thymidine derivative and/or uridine derivative were/was administered orally.
Table 5 lists the combinations of animal experiments of capecitabine and thymidine derivative (or a combination of thymidine derivative and uridine derivative) and the corresponding experimental results (wherein the data in the column of control rate=the occurrence rate of hand-foot syndrome in group of blank—the occurrence rate of hand-foot syndrome in group of administration).
The effect of thymidine derivative or a combination of thymidine derivative and uridine derivative on a mouse model with chemotherapeutic drug (capecitabine)-induced hand-foot syndrome was tested according to the method in Examples 41-52. Wherein, the drugs were administered transdermally for Examples 119-120 and orally for Examples 121-123.
The test thymidine derivative or the combination of thymidine derivative and uridine derivative, as well as the final concentration of the test compounds were shown in Table 9. Table 9 lists the combinations of animal experiments of capecitabine and the thymidine derivative gel (or a compounded gel of thymidine derivative and uridine derivative) and the corresponding experimental results (wherein the data in the column of control rate=the occurrence rate of hand-foot syndrome in Group of blank—the occurrence rate of hand-foot syndrome in Group of administration).

[2] = test system: 5-FU-induced diarrhea in Balb/c mice; test: 5-FU-induced diarrhea mouse model (175 mg/kg single i.p.); assay type: in vivo; conditions: 5-FU 175 mg/kg single i.p.; for Survival Rate / Average Diarrhea Grade: 6 days; for Average Diarrhea Grade: score 0-4
Protocol: 7-8-week-old male Balb/c mice were used to establish a 5-FU induced diarrhea model to test the effect of the thymidine derivative or the combination of thymidine derivative and uridine derivative on the relief of diarrhea.
Modeling dose of 5-Fu: 175 mg/kg; single administration, intraperitoneal injection (ip.);
Administration mode of the compound to test (thymidine derivative or combination of thymidine derivative and uridine derivative): single administration, by gavage, advance administration of the compound to test at various time points prior to intraperitoneal injection of 5-FU. The compound to test was administered 1 h prior to the administration of 5-FU, a certain amount of 5-FU was injected intraperitoneally 1 h later, and the compound to test was administered once again 7 h after the injection of 5-FU.
The mice were fed and adapted for one week, and then divided into groups, with 10 mice in each group for administration test.
The mice in the Group of blank was injected with 0.9% NaCl, and evaluated the effect by observing the change of diarrhea grade, food uptake, and weight change. The severity of diarrhea was scored in accordance with the following standards: 0: normal feces, 1: soft feces, 2: slightly wet, soft feces, 3: wet, unformed feces, with moderate coloration in perianal region, 4: watery feces with heavy coloration of hair in perianal region. The severity of diarrhea was evaluated by occurrence scores of various grades of diarrhea (Scores 0 to 4) and average score of diarrhea. […] The models were stable, and satisfied the experimental requirements.
5-FU was dissolved in a 0.9% NaCl solution, the mice in the model group and the treatment group were all i.p. injected at a dose of 175 mg/kg/d, […]. While modeling of injection administration of 5-FU, the thymidine derivative or the combination of thymidine derivative and uridine derivative was administered by gavage, and the compounds to test were dissolved in a PBS solution containing 5% DMSO+1% HPMC. Body weight was weighed daily to count the weight change (Δ % BW, the weight changes recorded in the table were the values on Day 6), and the food was weighed daily to calculate the food uptake. The mice were daily observed for their clinical status, e.g., activity, diarrhea, hair, fighting, etc. After 6 days, the experiments were completed and statistically analyzed for the results.

[3] = selected compound final concentration 0.8 μM
[4] = selected compound final concentration 1.6 μM
[5] = selected compound final concentration 3.13 μM
[6] = selected compound final concentration 6.25 μM
[7] = selected compound final concentration 12.5 μM
[8] = selected compound final concentration 25 μM
[9] = selected compound final concentration 50 μM

SMILES	Δ % BW (on Day 6) ([2]; 15 mpk gavage)	Survival Rate ([2]; 15 mpk gavage) [%]	Average Diarrhea Grade ([2]; 15 mpk gavage)	Cell Survival Rate (increased percentage of cell survival compared with the Group of 5-FU) (HaCaT cells; [3])	Cell Survival Rate (increased percentage of cell survival compared with the Group of 5-FU) (HaCaT cells; [4])	Cell Survival Rate (increased percentage of cell survival compared with the Group of 5-FU) (HaCaT cells; [5])	Cell Survival Rate (increased percentage of cell survival compared with the Group of 5-FU) (HaCaT cells; [6])	Cell Survival Rate (increased percentage of cell survival compared with the Group of 5-FU) (HaCaT cells; [7])	Cell Survival Rate (increased percentage of cell survival compared with the Group of 5-FU) (HaCaT cells; [8])	Cell Survival Rate (increased percentage of cell survival compared with the Group of 5-FU) (HaCaT cells; [9])	other results
CCCC(=O)OC[C@H]1O[C@@H](n2cc(C)c(=O)[nH]c2=O)C[C@@H]1OC(=O)CCC [T6, ((2R,3S,5R)-3-(butyryloxy)-5-(5-methyl-2,4-dioxo-3,4-dihydropyrimidin-1(2H)-yl)tetrahydrofuran-2-yl)methyl Butyrate]											activation at 1 µM (HaCaT cells; Homo sapiens, HaCaT, increase vs Group of 5-FU, 5-FU 20 μM, compound 1 μM, 48 h, read-out: Cell Survival Rate): 27 to 34%; activation at 5 µM (HaCaT cells; Homo sapiens, HaCaT, increase vs Group of 5-FU, 5-FU 20 μM, compound 5 μM, 48 h, read-out: Cell Survival Rate): 40 to 48%; activation at 10 µM (HaCaT cells; Homo sapiens, HaCaT, increase vs Group of 5-FU, 5-FU 20 μM, compound 10 μM, 48 h, read-out: Cell Survival Rate): 55 to 65%; activation at 50 µM (HaCaT cells; Homo sapiens, HaCaT, increase vs Group of 5-FU, 5-FU 20 μM, compound 50 μM, 48 h, read-out: Cell Survival Rate): 65 to 75%; activation at 100 µM (HaCaT cells; Homo sapiens, HaCaT, increase vs Group of 5-FU, 5-FU 20 μM, compound 100 μM, 48 h, read-out: Cell Survival Rate): 68 to 75%; activation at 200 µM (HaCaT cells; Homo sapiens, HaCaT, increase vs Group of 5-FU, 5-FU 20 μM, compound 200 μM, 48 h, read-out: Cell Survival Rate): 85 to 95%; inhibition in vivo at 200 mg/kg ([1]; read-out: Control Rate Forepaws): 65%; inhibition in vivo at 200 mg/kg ([1]; read-out: Control Rate Hindpaws): 77.5%
CCC(CC)COC(=O)[C@H](C)N[P@](=O)(OC[C@H]1O[C@@H](n2cc(C)c(=O)[nH]c2=O)C[C@@H]1O)Oc1ccccc1 [T48]	−1.97% ± 0.67%	100	1.3	26%-34%	38%-46%	41%-48%	66%-73%	68%-76%	77%-85%	69%-76%	
Cc1cn([C@H]2C[C@H](O)[C@@H](COC(=O)C(C)c3cccc(C(=O)c4ccccc4)c3)O2)c(=O)[nH]c1=O (stereo partly shown) [T33]				36%-42%	37%-44%	39%-49%	36%-42%	55%-63%	64%-71%	66%-73%	Δ % BW (on Day 6) ([2]; 50 mpk gavage): 4.18% ± 0.56%; Survival Rate ([2]; 50 mpk gavage): 100%; Average Diarrhea Grade ([2]; 50 mpk gavage): 1; Cell Survival Rate (increased percentage of cell survival compared with the Group of 5-FU) (HaCaT cells; selected compound final concentration 100 μM): 55%-63%
CCC(CC)COC(=O)[C@H](C)N[P@@](=O)(Oc1ccccc1)O[C@H]1C[C@H](n2cc(C)c(=O)[nH]c2=O)O[C@@H]1CO [T49]	−1.97% ± 0.67%	80	0.75	35%-42%	56%-63%	72%-79%	68%-74%	36%-44%			
